In patent US20160030406A1, “CORRECTORS ACTING THROUGH MSD1 OF CFTR PROTEIN” (VERTEX PHARMACEUTICALS INCORPORATED, priority 2013, published 2016):

Key:
[1] = target: T1, ΔF508-CFTR (Homo sapiens, UniProt P13569, DEL508-508); conditions: bronchial epithelial cells from CF subjects; cited from earlier work
T1 construct: endogenous in cells; host or cells: primary human bronchial epithelial cells from CF subjects homozygous for ΔF508

[2] = target: T2, CFTR fragments (CFTR^370, CFTR^373, CFTR^375, CFTR^380, CFTR^430, CFTR^530, CFTR^653) (Homo sapiens, UniProt P13569); assay: CFTR fragment steady-state accumulation by immunoblot in HEK293 cells; format: cell-based; conditions: HEK293, 4 hours bortezomib
T2 construct: expressed in transfected cells; host or cells: HEK293, transient transfection
Protocol: Steady-state levels of CFTR and its mutants are determined by western blot analysis. HEK293 cells are transiently transfected with the indicated plasmids (Grove, et al., 2011, Mol Biol Cell, 22: 301-14). The transfected cells are allowed to recover for approximately 18 hrs before addition of DMEM and then supplemented with lumacaftor or DMSO (control). The cells are incubated with the correctors for 24 hrs before isolating the cells for western blot analysis. The harvested cells are diluted with 2×SDS sample buffer (100 mM Tris-HCl (pH 6.8)/4% SDS/0.05% Bromophenol Blue/20% glycerol), sonicated, and heated at 37° C. prior to resolving the proteins on SDS-PAGE gels. The proteins are transferred to nitrocellulose membranes and the membranes are probed with the designated antibodies. β-tubulin is used to indicate loading controls.
To localize the region in CFTR on which lumacaftor acts to correct ΔF508-CFTR misfolding, immunoblot and pulse-chase studies are used to monitor the impact of the drug on the accumulation of a set of CFTR and ΔF508-CFTR fragments that expose surfaces present on CFTR folding intermediates.
A set of CFTR fragments with domain boundaries that permitted them to accumulate in unstable or stable states are expressed in HEK293 cells, and the effect of 5 μM lumacaftor on the accumulation of different fragments is determined. As a point of reference, the impact of the proteasome inhibitor bortezomib on CFTR fragment accumulation is also measured.
Cells are treated for 4 hours with bortezomib or 18 hours at 37° C. with lumacaftor. The amount of CFTR fragment accumulation is determined by immunoblot.
To evaluate whether the 362-380 helix is critical for MSD1 folding, the accumulation and sensitivity to lumacaftor of CFTR^373, CFTR^375, and CFTR^380 is analyzed. CFTR^373 accumulation is similar to that of CFTR^370 and insensitive to lumacaftor. CFTR^375 accumulation is similar to CFTR^370, but its amounts are increased around 6-fold by lumacaftor. […] Maximal accumulation of CFTR^380 occurs at 5 μM lumacaftor.

T1 sequence (P13569 with tags, fused parts or gaps DEL508-508): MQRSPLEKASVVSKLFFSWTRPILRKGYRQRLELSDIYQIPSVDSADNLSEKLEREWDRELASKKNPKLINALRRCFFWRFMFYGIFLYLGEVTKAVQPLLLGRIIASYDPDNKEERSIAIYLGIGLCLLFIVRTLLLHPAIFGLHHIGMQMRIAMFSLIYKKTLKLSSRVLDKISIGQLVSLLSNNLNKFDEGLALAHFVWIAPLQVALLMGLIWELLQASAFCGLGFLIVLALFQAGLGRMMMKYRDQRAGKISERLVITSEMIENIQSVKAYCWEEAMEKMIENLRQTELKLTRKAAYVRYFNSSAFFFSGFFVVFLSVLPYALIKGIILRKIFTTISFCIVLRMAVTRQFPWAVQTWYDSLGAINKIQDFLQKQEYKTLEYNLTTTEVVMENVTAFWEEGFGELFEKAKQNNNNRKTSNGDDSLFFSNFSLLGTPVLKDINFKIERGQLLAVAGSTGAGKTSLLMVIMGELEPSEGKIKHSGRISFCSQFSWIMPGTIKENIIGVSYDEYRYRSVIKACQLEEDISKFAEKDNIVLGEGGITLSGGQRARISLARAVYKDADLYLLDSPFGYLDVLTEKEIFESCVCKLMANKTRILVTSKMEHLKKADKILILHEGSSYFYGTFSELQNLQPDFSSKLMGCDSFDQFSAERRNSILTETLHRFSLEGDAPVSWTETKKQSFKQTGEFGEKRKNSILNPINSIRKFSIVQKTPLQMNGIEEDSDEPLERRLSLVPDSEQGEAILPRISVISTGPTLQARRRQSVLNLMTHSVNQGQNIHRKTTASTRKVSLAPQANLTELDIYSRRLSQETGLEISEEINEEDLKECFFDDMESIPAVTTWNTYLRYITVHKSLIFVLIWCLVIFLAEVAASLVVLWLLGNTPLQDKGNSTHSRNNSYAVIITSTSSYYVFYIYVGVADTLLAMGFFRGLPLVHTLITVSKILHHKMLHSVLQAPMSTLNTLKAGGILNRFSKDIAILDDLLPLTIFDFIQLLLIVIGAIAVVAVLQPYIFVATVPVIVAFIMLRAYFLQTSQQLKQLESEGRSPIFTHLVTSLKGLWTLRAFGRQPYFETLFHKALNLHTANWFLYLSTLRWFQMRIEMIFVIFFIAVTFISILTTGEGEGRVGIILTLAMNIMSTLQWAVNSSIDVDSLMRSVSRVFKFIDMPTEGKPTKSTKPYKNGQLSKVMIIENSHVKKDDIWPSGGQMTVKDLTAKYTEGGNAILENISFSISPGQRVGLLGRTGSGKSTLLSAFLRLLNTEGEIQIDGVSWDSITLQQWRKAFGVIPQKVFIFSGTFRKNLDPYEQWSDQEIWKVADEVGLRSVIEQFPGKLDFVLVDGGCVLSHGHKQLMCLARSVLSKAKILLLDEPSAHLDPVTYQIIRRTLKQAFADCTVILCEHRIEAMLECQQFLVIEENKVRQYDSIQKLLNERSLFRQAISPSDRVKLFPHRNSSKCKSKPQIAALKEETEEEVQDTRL

Structure (SMILES) | ΔF508-CFTR function [1] | accumulation of CFTR^430, sensitivity to proteasome inhibition [2] | accumulation of CFTR^653, sensitivity to proteasome inhibition [2] | increase in accumulation of CFTR^370 [2] | increase in accumulation of CFTR^530 [2]
COc1ccc(Cl)cc1Nc1nc(-c2sc(NC(=O)c3ccccc3)nc2C)cs1 [Corr-4a] | partially restored | – | – | – | –
CC(C)C[C@H](NC(=O)[C@H](Cc1ccccc1)NC(=O)c1cnccn1)B(O)O [bortezomib] | – | relatively insensitive | relatively insensitive | 10 fold | 10 fold
